Experiments:
Human recombinant PREP = target: T1, Human recombinant PREP (Homo sapiens, UniProt P48147); experiment: PREP IC50 measurement (N-succinyl-Gly-Pro-AMC); type: biochemical; settings: FIG. 1, Compound 1 versus Compound 0
T1 construct: made in house; host or cells: E. coli BL21(DE3)
T1 sequence (P48147 1-710): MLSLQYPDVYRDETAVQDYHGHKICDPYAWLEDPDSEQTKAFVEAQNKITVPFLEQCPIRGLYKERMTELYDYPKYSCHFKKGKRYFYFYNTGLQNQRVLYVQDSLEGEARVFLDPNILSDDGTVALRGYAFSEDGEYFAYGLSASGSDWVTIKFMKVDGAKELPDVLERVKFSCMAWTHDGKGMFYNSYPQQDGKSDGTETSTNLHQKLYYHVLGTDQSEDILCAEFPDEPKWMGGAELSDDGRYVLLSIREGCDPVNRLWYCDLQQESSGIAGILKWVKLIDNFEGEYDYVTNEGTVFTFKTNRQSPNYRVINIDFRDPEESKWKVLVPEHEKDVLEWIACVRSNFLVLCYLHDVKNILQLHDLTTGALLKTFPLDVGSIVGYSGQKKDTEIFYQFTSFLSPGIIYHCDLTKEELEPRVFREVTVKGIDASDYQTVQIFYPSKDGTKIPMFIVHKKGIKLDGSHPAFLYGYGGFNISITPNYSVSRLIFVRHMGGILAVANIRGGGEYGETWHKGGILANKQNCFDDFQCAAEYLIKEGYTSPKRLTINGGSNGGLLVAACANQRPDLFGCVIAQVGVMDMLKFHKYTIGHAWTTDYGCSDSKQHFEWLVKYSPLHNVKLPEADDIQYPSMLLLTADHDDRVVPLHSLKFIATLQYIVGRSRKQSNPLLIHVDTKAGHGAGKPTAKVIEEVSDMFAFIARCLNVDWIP
From the text: Used Enzymes in these Assays: • A gateway-entry clone for human FAP was purchased from Dharmacon (Accession number DQ891423) and the human secretion signal was replaced with the HoneyBee mellitin secretion signal. For transfection and expression of FAP in Sf9 insect cells the C-terminal BaculoDirect kit from LifeTechnologies was used. The enzyme was purified from the supernatant of the insect cells using immobilized Ni-chelating chromatography (GE healthcare, Diegem, Belgium), followed by anion-exchange chromatography using a 1 mL HiTrap Q and size exclusion chromatography using the Superdex 200 column (GE healthcare, Diegem, Belgium). • Human recombinant PREP was expressed in BL21(DE3) cells and purified using immobilized Co-chelating chromatography (GE healthcare), followed by anion-exchange chromatography on a 1 ml Mono Q column (GE healthcare). • DPP4 was purified from human seminal plasma. • Gateway-entry clones for human DPP8 and DPP9 were purchased from Dharmacon (Accession numbers DQ891733 and DQ892325 respectively). For transfection and expression of DPP8 and DPP9 in Sf9 insect cells the N-terminal BaculoDirect kit from LifeTechnologies was used. The enzymes were purified using immobilized Ni-chelating chromatography (GE healthcare, Diegem, Belgium), followed by anion-exchange chromatography using a 1 mL Mono Q (GE healthcare, Diegem, Belgium). • Recombinant human DPP2 was purchased from R&D.
Eight concentrations of inhibitors/probe were tested. The final DMSO concentration was kept constant during the experiment to exclude any effects. Inhibitors were pre-incubated with the enzyme for 15 minutes at 37° C., afterwards the substrate was added and the velocities of AMC release were measured kinetically at λex=380 nm, λem=465 nm for at least 10 minutes at 37° C. […] Eight concentrations of inhibitors were tested. The final DMSO concentration in kept constant during the experiment to exclude any effects. Inhibitors were pre-incubated with the enzyme for 15 minutes at 37° C., afterwards the substrate was added and the velocities of AMC release were measured kinetically at λex=380 nm, λem=465 nm for at least 10 minutes at 37° C. […] At least eight different inhibitor concentrations were used. The final DMSO concentration is kept constant during the experiment to exclude any effects. Inhibitors were pre-incubated with the enzyme for 15 minutes at 37° C., afterwards the substrate was added and the velocities of pNA release were measured kinetically at 405 nm for at least 10 minutes at 37° C. Measurements were done on the Infinite 200 (Tecan Group Ltd.) and the Magellan software was used to process the data. • For DPP2: Initial velocity measurements were carried out. Lys-Ala-pNA was used as the substrate at a concentration of 1 mM at pH 5.5 (100 mM NaAc, 10 mM EDTA, 14 μg/mL aprotinin). Inhibitors were tested at one concentration, 5 μM, being the final concentration in the well. Inhibitors were pre-incubated with the enzyme for 15 minutes at 37° C., afterwards the substrate was added and the velocities of pNA release were measured kinetically at 405 nm for at least 10 minutes at 37° C. Measurements were done on the Infinite 200 (Tecan Group Ltd.) and the Magellan software was used to process the data.

[1] = Partition coefficient (Log D) of radiotracer; type: physicochemical; settings: organic solvent / aqueous solution (solvents not named); mean with standard deviation (n=8)
Description: Radiotracer characterization: To assess the quality and suitability of compound 1 ([^18F]UAMC-4522) for specific applications, such as medical imaging, several parameters were determined. First, the decay-corrected RCY (Radiochemical Yield) was calculated. This indicates the percentage of the desired radioactively labeled molecule after correction for radioactive decay. It is calculated by dividing the amount of radioactively labeled molecule by the total radioactivity, taking into account the time elapsed since radiolabeling. Next, the Apparent Molar Activity (Am) was calculated. This represents the activity of the radiotracer per unit of substance (e.g. per micromole). It is calculated by dividing the activity of the radiotracer by the amount of labeled molecule used. Next, the Radiochemical Purity (RCP) was determined. This indicates the percentage of the radioactively labeled molecule relative to other chemical components or impurities. It is often determined using analytical techniques such as radio-HPLC (High-Performance Liquid Chromatography) or radio-TLC (Thin-Layer Chromatography). Finally, the Partition Coefficient (Log D) was calculated. This reflects the distribution of a substance between two solvents with different polarities. The Log D value represents the ratio of the concentrations of the substance in an organic solvent and an aqueous solution. […]

[2] = In vivo stability of radiotracer in plasma; design: species or system CD1 nude mice; settings: for Mean % intact radiotracer ± SD: CD1 nude mice
Description: (§1) For all in vivo studies the following experimental procedure was used. Mice (7- to 8-week old female CD1−/− nude mice) were injected with 5.1-7.4 MBq of compound 1 (n=9) via the lateral tail vein. At 15, 30, 60 (n=3 for each time point) post-radiotracer injection (p.i.) the blood was collected in EDTA-coated tubes through cardiac puncture and the mice were euthanized by cervical dislocation.
From the collected blood, the plasma fraction was obtained by centrifugation at 4,000 g for 7 min, and mixed (200 μL) with an equal volume of cold MeCN to enable sample deproteination. After vigorously vortexing and γ-counting, the samples were centrifuged at 4000 g for 4 min, and the supernatant and the pellet were γ-counted separately to determine the amount of recovered radioactivity in the organic phase. The radioactive contents of the supernatant were analyzed by analytical radio-HPLC. The eluate fractions were collected every 30 s and counted for radioactivity in an automated γ-counter.

U87MG xenografts [3] = experiment: Ex vivo biodistribution in tumor-bearing animals; design: species or system mice; settings: 60 min p.i.
Description: In accordance with the PET results, the biodistribution study confirmed the high and specific tumor uptake of all FAP radioligands at 60 min post-injection (p.i.) (Table 6).

[4] = Biodistribution in control animals (FIG. 3); type: in vivo; settings: FIG. 3, normal CD1 nude mice, 15, 30, 60 min p.i.
Description: as §1
The uptake levels of the tracers were expressed as percentage of the injected dose per gram (% ID g^−1).
FIG. 3 summarizes the tissue biodistribution (% injected dose/gram of tissue) of [^18F]UAMC-4522 (compound 1) and of compound 0 in normal CD1 nude mice after 15, 30, and 60 min p.i. (n=3 per timepoint).

[5] = Metabolic stability comparison (FIG. 2); settings: FIG. 2, Compound 1 versus Compound 0
U87MG xenografts [6] = settings: mouse
Description: Dynamic whole-body PET images were acquired during 60 min. The average tumor or muscle activity per volume was obtained from the PET images and the decay-corrected time-activity curves (TACs) were extracted. At the end of the scans, the organs and tissues were harvested, weighed and the radioactivity in the samples was measured using an automatic γ-counter.

[7] = female, CD1-/- nude, in vivo, 60 min

[2H]C([2H])([18F])[N+](C)(C)CCCOc1ccc2nccc(C(=O)NCC(=O)N3CC(F)(F)C[C@H]3C#N)c2c1 [Compound 1]
selectivity for FAP with respect to PREP (in words) (Human recombinant PREP): significantly higher selectivity for FAP | logD [1]: -1.77 ± 0.01 | Mean % intact radiotracer ± SD ([2]; 15 min p.i.): 74.84 ± 6.62% | Mean % intact radiotracer ± SD ([2]; 30 min p.i.): 60.23 ± 3.60% | Mean % intact radiotracer ± SD ([2]; 60 min p.i.): 56.47 ± 7.81% | Mean % intact radiotracer ± SD ([2]; time 0 min): 99.12 ± 0.51% | in vivo stability (in words) ([2]; compared with the control [68Ga]Ga-DOTA-FAPI-04): significantly higher | Tumor (% ID/g) (U87MG xenografts [3]): 10.98 ± 1.73 % ID/g | Tumor-to-blood (U87MG xenografts [3]): 6.35 ± 1.08 | Tumor-to-liver (U87MG xenografts [3]): 4.77 ± 0.58 | Tumor-to-muscle (U87MG xenografts [3]): 6.54 ± 1.36 | Tumor-to-small intestine (U87MG xenografts [3]): 2.43 ± 0.12 | biodistribution / excretion profile (in words) [4]: biodistribution profile including urinary excretion | metabolic stability (in words) [5]: significantly higher metabolic stability | tumor uptake (PET) (U87MG xenografts [6]; [7]): 10.16±2.22 % ID/mL | uptake in the muscle (PET) (U87MG xenografts [6]; [7]): 2.20±0.33 % ID/mL | uptake into tumor tissue in vivo (in words) (U87MG xenografts [6]): significantly higher uptake | nonspecific tumor uptake (in words) (U87MG xenografts [6]; in vivo): lower nonspecific tumor uptake | tumor time-activity curve (in words) (U87MG xenografts [6]; in vivo): early peak uptake in the tumor followed by retention or slight increase in the tumor | tumor uptake after pre-injection of UAMC-1110 (blocking study, in words) (U87MG xenografts [6]; in vivo): decrease in tumor uptake
